# Source: patent US10781185B2, “Heterocyclic compounds for the inhibition of PASK” (BioEnergenix LLC, priority 2009, dated 2020)
# Target: PASK (Homo sapiens (Human), UniProt Q96RG2)
# Experiment: PAS Kinase FRET Assay
# Type: biochemical
# Conditions: TR-FRET, Ulight-peptide substrate; read-out: IC50 Kinase Domain
# From the text: PAS Kinase FRET Assay The aim of the FRET assay is to determine the inhibition potential of test compounds on targeted kinase. This assay platform provides a homogenous screening method for measuring kinase activity by quantitating the amount of phospho-substrate in solution following a kinase reaction. In the presence of kinase and ATP, the Ulight-peptide is phosphorylated and captured by an anti-phospho-substrate antibody, which brings the Eu chelate donor and Ulight acceptor dyes into close proximity. […] The contents of the plate were and incubated at RT for 1 h. The reaction was stopped by adding 5 μl of stop solution to each test well followed by mixing and incubation at RT for 10 minutes. 5 μl of detection mix (detection antibody diluted in detection buffer) was added; the contents of the plate were mixed and then incubated in the dark for 1 hour at RT. […] The results were graphed to calculate the EC50. Titration of ATP at the EC50 concentration of kinase to determine ATP Km,app. was performed using the following method. […] The contents of the plate were and incubated at RT for 1 h. The reaction was stopped by adding 5 μl of stop solution to each test well followed by mixing and incubation at RT for 10 minutes. 5 μl of detection mix (detection antibody diluted in detection buffer) was added; the contents of the plate were mixed and then incubated in the dark for 1 hour at RT. […] The results were graphed to calculate the EC50 as the ATP Km,app. […] If compound is not soluble under this condition, it was diluted to 3 mM. Kinase reaction buffer was prepared containing 10 mM MgCl2, 50 mM HEPES, 1 mM EGTA, 0.01% TWEEN-20, 2 mM DTT. […] As a positive control, 2.5 μl of positive compound was added to assay wells, and 2.5 μl of DMSO to assay wells as vehicle control. Kinase solution was prepared in reaction buffer at 2× final assay concentration. Kinase solution (5 μl) was added to each well of the assay plate. The substrate and ATP solution was prepared in kinase reaction buffer at 4× final assay concentration. The kinase reaction was started by adding 2.5 μl of substrate+ATP mix solution to each well of the assay plate. The plate is mixed on a plate shaker; then covered and allowed to react for 2 hours in the dark at 25° C. without shaking. The reaction was stopped by adding 5 μl of stop solution to each test well followed by mixing and incubation at RT for 10 minutes in the dark. 5 μl of detection mix (detection antibody diluted in detection buffer) was added; the contents of the plate were mixed and then incubated in the dark for 1 hour at RT.
# PASK, sequence (Q96RG2 999-1251): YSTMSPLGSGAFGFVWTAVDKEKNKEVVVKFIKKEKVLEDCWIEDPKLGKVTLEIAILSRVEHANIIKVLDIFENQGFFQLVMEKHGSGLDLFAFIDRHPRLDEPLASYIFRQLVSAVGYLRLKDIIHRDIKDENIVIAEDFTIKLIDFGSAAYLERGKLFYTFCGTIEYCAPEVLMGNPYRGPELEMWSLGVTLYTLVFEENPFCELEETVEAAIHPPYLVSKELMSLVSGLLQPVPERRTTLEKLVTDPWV
row,Compound,IC50
1,"O=C(O)c1ccc2nc(-c3ccccc3)c(N3CCc4ccccc43)nc2c1 [Example 67, 3-(Indolin-1-yl)-2-phenylquinoxaline-6-carboxylic acid]",≤ 10 µM
2,"O=C(O)c1ccc2nc(-c3ccc(F)cc3)c(N3CCS(=O)(=O)CC3)nc2c1 [Example 101, 3-(1,1-Dioxidothiomorpholino)-2-(4-fluorophenyl)quinoxaline-6-carboxylic acid]",≥ 10 µM
3,"O=C(O)c1ccc2nc(-c3ccccc3)c(N3CCc4ccccc4C3)nc2c1 [Example 39, 3-(3,4-Dihydroisoquinolin-2(1H)-yl)-2-phenylquinoxaline-6-carboxylic acid]",≤ 10 µM
4,"O=C(O)c1ccc2nc(-c3ccccc3)c(N3CCCC4CCCCC43)nc2c1 (centres unmarked) [Example 96, 3-(Octahydroquinolin-1(2H)-yl)-2-phenylquinoxaline-6-carboxylic acid]",≤ 10 µM
5,"CN(CCc1ccccc1)c1nc2cc(C(=O)O)ccc2nc1-c1ccccc1 [Example 42, 3-(Methyl(phenethyl)amino)-2-phenylquinoxaline-6-carboxylic acid]",≤ 10 µM
6,"O=C(O)c1ccc2nc(-c3ccccc3)c(N3CCOc4ccccc43)nc2c1 [Example 68, 3-(2,3-Dihydrobenzo[b][1,4]oxazin-4-yl)-2-phenylquinoxaline-6-carboxylic acid]",≤ 10 µM
7,"O=C(O)c1ccc2nc(-c3ccccc3)c(N3CC[C@@H](O)C3)nc2c1 [Example 49, (R)-3-(3-Hydroxypyrrolidin-1-yl)-2-phenylquinoxaline-6-carboxylic acid]",≤ 10 µM
8,"CC(=O)N(C)C1CCN(c2nc3cc(C(=O)O)ccc3nc2-c2ccc(F)cc2)CC1 [Example 111, 2-(4-Fluorophenyl)-3-(4-(N-methylacetamido)piperidin-1-yl)quinoxaline-6-carboxylic acid]",≤ 10 µM
9,"O=C1CN(c2nc3cc(C(=O)O)ccc3nc2-c2ccc(F)cc2)CCN1 [Example 103, 2-(4-Fluorophenyl)-3-(3-oxopiperazin-1-yl)quinoxaline-6-carboxylic acid]",≤ 10 µM
10,"CN1CCN(c2nc3cc(C(=O)O)ccc3nc2-c2ccc(F)cc2)CC1=O [Example 112, 2-(4-Fluorophenyl)-3-(4-methyl-3-oxopiperazin-1-yl)quinoxaline-6-carboxylic acid]",≤ 10 µM
11,"C[C@H]1CN(c2ccccn2)CCN1c1nc2cc(C(=O)O)ccc2nc1-c1ccc(F)cc1 [Example 90, (S)-2-(4-Fluorophenyl)-3-(2-methyl-4-(pyridin-2-yl)piperazin-1-yl)quinoxaline-6-carboxylic acid]",≤ 10 µM
12,"CC(=O)NC1CCN(c2nc3cc(C(=O)O)ccc3nc2-c2ccccc2)CC1 [Example 37, 3-(4-Acetamidopiperidin-1-yl)-2-phenylquinoxaline-6-carboxylic acid]",≤ 10 µM
13,"CS(=O)(=O)N1CCN(c2nc3cc(C(=O)O)ccc3nc2-c2ccccc2)CC1 [Example 33, 3-(4-(Methylsulfonyl)piperazin-1-yl)-2-phenylquinoxaline-6-carboxylic acid]",≤ 10 µM
14,"COC[C@H]1CCCN1c1nc2cc(C(=O)O)ccc2nc1-c1ccc(F)cc1 [Example 93, (R)-2-(4-Fluorophenyl)-3-(2-(methoxymethyl)pyrrolidin-1-yl)quinoxaline-6-carboxylic acid]",≤ 10 µM

# Second part, the compound after the results:
row,IC50,Compound
1,≤ 10 µM,"CN(c1nc2cc(C(=O)O)ccc2nc1-c1ccc(F)cc1)C1CCOCC1 [Example 105, 2-(4-Fluorophenyl)-3-(methyl(tetrahydro-2H-pyran-4-yl)amino)quinoxaline-6-carboxylic acid]"
2,≥ 10 µM,"CC(C)N(C)c1nc2cc(C(=O)O)ccc2nc1-c1ccc(S(C)(=O)=O)cc1 [Example 82, 3-(Isopropyl(methyl)amino)-2-(4-(methylsulfonyl)phenyl)quinoxaline-6-carboxylic acid]"
3,≤ 10 µM,"CC[C@@H](C)N(C)c1nc2cc(C(=O)O)ccc2nc1-c1ccccc1 [Example 61, (R)-3-(sec-Butyl(methyl)amino)-2-phenylquinoxaline-6-carboxylic acid]"
4,≤ 10 µM,"CC(C)N(C)c1nc2cc(C(=O)O)ccc2nc1-c1ccccc1F [Example 71, 2-(2-Fluorophenyl)-3-(isopropyl(methyl)amino)quinoxaline-6-carboxylic acid]"
5,≤ 10 µM,"COc1cccc(-c2nc3ccc(C(=O)O)cc3nc2N(C)C(C)C)c1 [Example 69, 3-(Isopropyl(methyl)amino)-2-(3-methoxyphenyl)quinoxaline-6-carboxylic acid]"
6,≤ 10 µM,"C[C@H](c1ccccc1)N(C)c1nc2cc(C(=O)O)ccc2nc1-c1ccccc1 [Example 59, (R)-3-(Methyl(1-phenylethyl)amino)-2-phenylquinoxaline-6-carboxylic acid]"
7,≤ 10 µM,"O=C(O)c1ccc2nc(-c3ccccc3)c(-n3ccc4ccccc43)nc2c1 [Example 62, 3-(1H-Indol-1-yl)-2-phenylquinoxaline-6-carboxylic acid]"
8,≤ 10 µM,"Cc1ccc(-c2nc3ccc(C(=O)O)cc3nc2N(C)C(C)C)s1 [Example 107, 3-(Isopropyl(methyl)amino)-2-(5-methylthiophen-2-yl)quinoxaline-6-carboxylic acid]"
9,≤ 10 µM,"CC(=O)N(C)C1CCN(c2nc3cc(C(=O)O)ccc3nc2-c2ccccc2)CC1 [Example 34, 3-(4-(N-Methylacetamido)piperidin-1-yl)-2-phenylquinoxaline-6-carboxylic acid]"
10,≤ 10 µM,"CC(C)N(C)c1nc2cc(C(=O)O)ccc2nc1-c1cnc2ccccc2c1 [Example 99, 3-(Isopropyl(methyl)amino)-2-(quinolin-3-yl)quinoxaline-6-carboxylic acid]"
11,≤ 10 µM,"CCN(CC)c1nc2cc(C(=O)O)ccc2nc1-c1ccccc1 [Example 36, 3-(Diethylamino)-2-phenylquinoxaline-6-carboxylic acid]"
12,≤ 10 µM,"CN(c1nc2cc(C(=O)O)ccc2nc1-c1ccc(F)cc1)C1CCCC1 [Example 106, 3-(Cyclopentyl(methyl)amino)-2-(4-fluorophenyl)quinoxaline-6-carboxylic acid]"
13,≤ 10 µM,"CC(C)N(C)c1nc2cc(C(=O)O)ccc2nc1-c1ccc(N2CCOCC2)cc1 [Example 100, 3-(Isopropyl(methyl)amino)-2-(4-morpholinophenyl)quinoxaline-6-carboxylic acid]"
14,≤ 10 µM,"CC(C)N(C)c1nc2cc(C(=O)O)ccc2nc1-c1cccc(F)c1 [Example 70, 2-(3-Fluorophenyl)-3-(isopropyl(methyl)amino)quinoxaline-6-carboxylic acid]"
15,≤ 10 µM,"CC(C)N(C)c1nc2cc(C(=O)O)ccc2nc1-c1cccs1 [Example 108, 3-(Isopropyl(methyl)amino)-2-(thiophen-2-yl)quinoxaline-6-carboxylic acid]"
16,≤ 10 µM,"CC(C)N(C)c1nc2cc(C(=O)O)ccc2nc1-c1cccnc1 [Example 97, 3-(Isopropyl(methyl)amino)-2-(pyridin-3-yl)quinoxaline-6-carboxylic acid]"
17,≤ 10 µM,"CC(C)N(C)c1nc2cc(C(=O)O)ccc2nc1-c1ccco1 [Example 98, 2-(Furan-2-yl)-3-(isopropyl(methyl)amino)quinoxaline-6-carboxylic acid]"
18,≤ 10 µM,"CCC(C)N(C)c1nc2cc(C(=O)O)ccc2nc1-c1ccccc1 (centres unmarked) [Example 48, 3-(sec-Butyl(methyl)amino)-2-phenylquinoxaline-6-carboxylic acid]"
